Data: US20080021086A1, “Pharmaceutical Composition for Prevention or Treatment of Lipid Metabolism Disorder” (KISSEI PHARMACEUTICAL CO., LTD., priority 2004, published 2008)

Columns and labels:
diabetic patients = settings: single dose, compared to placebo; cited from earlier work
Type 2 diabetic patients = test: Clinical efficacy on lipid metabolism disorders in diabetic patients (clinical study of mitiglinide calcium hydrate tablets); type: in vivo, human
Protocol: The following clinical study was conducted in Type 2 diabetic patients using tablets containing 5 mg of mitiglinide calcium hydrate and tablets containing 10 mg of mitiglinide calcium hydrate.
Patients included: Type 2 diabetic patients;
Mode of dosing: oral administration of 5 to 20 mg as a single dose three times per day just before (5 minutes before) each meal;
Dosing period: 28 weeks to 52 weeks;
Major items of observation: stabilized hemoglobin A1c (HbA1c), biochemical examination of blood (total cholesterol, triglyceride, LDL-cholesterol, HDL-cholesterol, free fatty acid);
Statistical Method: in all patients with an abnormal value of each lipid at pretreatment and without any hypolipidemic agent, significance test was conducted on the average of the final evaluation against the average of the pretreatment (*: P<0.05, **: P<0.01).
Patients with 150 mg/dL or more of serum TG at pretreatment were picked out as an abnormal group, the efficacy of mitiglinide calcium hydrate was evaluated on the group.
Patients with 200 mg/dL or more of serum TC at pretreatment were picked out as an abnormal group, the efficacy of mitiglinide calcium hydrate was evaluated.
Patients with 0.86 mEq/L or more of serum free fatty acid (FFA), 120 mg/dL or more of LDL-cholesterol (LDL-C) and less than 40 mg/dL of HDL-cholesterol at pretreatment, respectively, were picked out as abnormal groups, the efficacy of mitiglinide calcium hydrate was evaluated.

diabetic patient = settings: single dose; cited from earlier work
[1] = after 12-week repeated administration compared to pretreatment; cited from earlier work
[2] = Example 2, person, 52 weeks vs pretreatment
[3] = Example 4, person, 40 weeks vs pretreatment
[4] = Example 5, person, 24 weeks vs pretreatment
[5] = Example 6, person, 52 weeks vs pretreatment
[6] = Example 7, person, 52 weeks vs pretreatment

## CCOc1cc(CC(=O)N[C@@H](CC(C)C)c2ccccc2N2CCCCC2)ccc1C(=O)O [repaglinide]
Diabetic patients
  effect on postprandial lipid variation: did not show significant improving effect

## O.O.O=C(O)[C@H](CC(=O)N1C[C@H]2CCCC[C@H]2C1)Cc1ccccc1.[Ca] [mitiglinide calcium hydrate, (2S)-2-benzyl-3-(cis-hexa hydro-2-isoindolinylcarbonyl)propionic acid calcium dihydrate]
Type 2 diabetic patients; Example 2, person, 10 mg till 16th week then 20 mg, after 52-week administration, pretreatment 0.94
  FFA at the final evaluation: 0.26 mEq/L
Type 2 diabetic patients; Example 2, person, 10 mg till 16th week then 20 mg, after 52-week administration, pretreatment 137
  LDL-C at the final evaluation: 108 mg/dL
Type 2 diabetic patients; Example 2, person, 10 mg till 16th week then 20 mg, after 52-week administration, pretreatment 240
  TC at the final evaluation: 185 mg/dL
Type 2 diabetic patients; [2]
  change of FFA: −0.68 mEq/L
  change of LDL-C: -29 mg/dL
  change of TC: -55 mg/dL
Type 2 diabetic patients; Example 3, person, 10 mg, after 52-week administration, pretreatment 171
  TG at the final evaluation: 110 mg/dL
Type 2 diabetic patients; Example 3, person, 52 weeks vs pretreatment
  change of TG: -61 mg/dL
Type 2 diabetic patients; Example 4, person, 10 mg till 16th week then 20 mg, after 40-week administration, pretreatment 163
  TG at the final evaluation: 101 mg/dL
Type 2 diabetic patients; Example 4, person, 10 mg till 16th week then 20 mg, after 40-week administration, pretreatment 214
  TC at the final evaluation: 162 mg/dL
Type 2 diabetic patients; [3]
  change of TC: -52 mg/dL
  change of TG: -62 mg/dL
Type 2 diabetic patients; Example 5, person with concomitant hyperlipidemia, 10 mg till 16th week then 20 mg, after 24-week administration, pretreatment 0.53
  FFA at the final evaluation: 0.30 mEq/L
Type 2 diabetic patients; Example 5, person with concomitant hyperlipidemia, 10 mg till 16th week then 20 mg, after 24-week administration, pretreatment 213
  TG at the final evaluation: 145 mg/dL
Type 2 diabetic patients; [4]
  change of FFA: −0.23 mEq/L
  change of TG: -68 mg/dL
Type 2 diabetic patients; Example 6, person with concomitant hyperlipidemia, 10 mg, after 52-week administration, pretreatment 149
  LDL-C at the final evaluation: 134 mg/dL
Type 2 diabetic patients; Example 6, person with concomitant hyperlipidemia, 10 mg, after 52-week administration, pretreatment 260
  TC at the final evaluation: 203 mg/dL
Type 2 diabetic patients; [5]
  change of LDL-C: -15 mg/dL
  change of TC: -57 mg/dL
Type 2 diabetic patients; Example 7, person, 10 mg, after 52-week administration, pretreatment 57
  HDL-C at the final evaluation: 72 mg/dL
Type 2 diabetic patients; Example 7, person, 10 mg, after 52-week administration, pretreatment 129
  LDL-C at the final evaluation: 116 mg/dL
Type 2 diabetic patients; Example 7, person, 10 mg, after 52-week administration, pretreatment 170
  TG at the final evaluation: 100 mg/dL
Type 2 diabetic patients; Example 7, person, 10 mg, after 52-week administration, pretreatment 226
  TC at the final evaluation: 206 mg/dL
Type 2 diabetic patients; [6]
  change of HDL-C: +15 mg/dL
  change of LDL-C: -13 mg/dL
  change of TC: -20 mg/dL
  change of TG: -70 mg/dL
Type 2 diabetic patients; all patients with 150 mg/dL or more of pretreatment TG, oral 5 to 20 mg three times per day, 28 to 52 weeks, pretreatment average 262.6, ** P<0.01 vs pretreatment
  Average of TG, Final evaluation: 216.3** mg/dL
Type 2 diabetic patients; all patients with 200 mg/dL or more of TC at pretreatment, oral 5 to 20 mg three times per day, 28 to 52 weeks, pretreatment average 231.8, * P<0.05 vs pretreatment
  Average of TC, After the end of administration: 226.4* mg/dL
Type 2 diabetic patients; patients with 120 mg/dL or more of LDL-C at pretreatment, pretreatment average 144.9, ** P<0.01
  Average LDL-C, After the end of administration: 137.7** mg/dL
Type 2 diabetic patients; patients with 0.86 mEq/L or more of FFA at pretreatment, pretreatment average 1.021, ** P<0.01
  Average FFA, After the end of administration: 0.745** mEq/L
Type 2 diabetic patients; patients with high blood TG, blood TC, FFA or LDL-C, or low HDL-C
  overall effect on blood lipids: remarkable effects to lower TG, TC, LDL-C or FFA, or increase HDL-C
Type 2 diabetic patients; patients with less than 40 mg/dL of HDL-C at pretreatment, pretreatment average 34.7, ** P<0.01
  Average HDL-C, After the end of administration: 40.3** mg/dL

## CC(C)[C@H]1CC[C@H](C(=O)N[C@H](Cc2ccccc2)C(=O)O)CC1 [nateglinide]
Diabetic patient
  effect on postprandial increase of triglyceride: suppressed postprandial increase of triglyceride
[1]
  effect on postprandial lipid variation: did not show a significant improvement
